{
  "source": "patent US6521265B1",
  "about": "“Method for applying a blood clotting agent” (Biolife, L.L.C., priority 2000, dated 2003)",
  "system": "blood flowing from an open wound",
  "assay": "Potassium ferrate used on blood flowing from an open wound",
  "details": "in vivo",
  "description": "The apparent chemical ferrate reaction with water found in blood is as follows:\nAs provided by the above compounds, a method of arresting blood and body fluid flow from an open skin wound is provided. An effective amount of any of the above salt ferrates, and preferably potassium ferrate in powder form, is applied directly onto the wound to interact with flowing blood or body fluid to accelerate its clotting.",
  "data": [
    {"substance": "potassium ferrate", "values": [
      {"measurement": "clotting of blood flowing from an open wound", "value": "effectively accomplishes the accelerated clotting of blood"}
    ]}
  ]
}
